One assay addresses hemagglutinin (Influenza A virus, UniProt P03437). The conditions noted are these: read-out: binding constant between hemagglutinin and free sialyl lactose (K0); evaluation by NMR, reported; cited from earlier work.
Assay [1] relates to hemagglutinin (immobilized H3N2). Description: Biacore binding of synthetic peptides to H3N2 immobilized on Sensor Chip CM5. Details: species or system influenza virus type A A/Wuhan/359/95 (H3N2). The conditions noted are these: Biacore.
Assay [2] deals with binding of hemagglutinin (H3) to GM3. Description: ELISA inhibition of GM3-hemagglutinin interaction using GM3 cast membrane. On the set-up: species or system influenza virus. As to the method: Inhibition of the interaction between GM3 and hemagglutinin (HA) was evaluated by ELISA using the GM3 cast membrane (Kazuhiro Nagata and Hiroshi Handa, “Seibutsu Busshitsu Sogosayo no Real-time Kaiseki Jikkenho—BIACORE wo Chushin Ni (Real-time Analysis Experimental Procedures on Biological Substance Interaction—Focusing on BIOCORE), Springer-Verlag Inc., Tokyo, 1998)”). […] In addition, it has been reported from an evaluation by NMR that the binding constant between hemagglutinin and free sialyl lactose is in the order of mM (e.g. α (2, 3)-sialyllactose K0=3.2 mM). Therefore, the results presented in this Example were largely consistent with the inhibition constant of the peptides reported by Inoue. Moreover, the results presented in this Example are in the same order of magnitude as, or one order smaller than, the inhibition constant of A-1 or the binding constant obtained with sialyl lactose.

In general, IC50 refers to the point on the concentration scale where inhibition reaches its midpoint.

For the compound `CC(=O)N[C@H]1[C@H]([C@H](O)[C@H](O)CO)O[C@@](O[C@H]2[C@@H](O)[C@@H](CO)O[C@@H](O[C@H]3[C@H](O)[C@@H](O)C(O)O[C@@H]3CO)[C@@H]2O)(C(=O)O)C[C@@H]1O` (stereo partly drawn) [α (2, 3)-sialyllactose], the Kd on hemagglutinin is 3200 µM.
With “ARLSPTMVHPNGAQP [A-1, ARLSPTMVHPNGAQP-NH2, reference compound]”, in assay [1], the “order of binding strength to hemagglutinin” value is on record as “s-2>e-1>A-1>pVIII”. The IC50 in assay [2] was 1900 µM.
